Experimental data reported in patent US7767398B2, “Means and methods for diagnosing and treating affective disorders” (Affectis Pharmaceuticals AG, priority 2003, dated 2010).

Key:
mice = test: Porsolt's forced swim test; type: in vivo, mouse; details: 100 nM KN-62 or 10 μM oATP, 1 μl each side, dentate gyrus; 24 hours after injection; DBA/201a mice
Procedure: Further validation of role of P2X7R in affective disorders was performed by examining its expression pattern in response to stress and treatment with antidepressant drugs. […] In parallel, a control group of mice was given vehicle solution (i.e. without paroxetine) using the same treatment regiment while a second control group of mice was left undisturbed and stress-free (i.e. untreated) during the same period of the experiments. At the end of the long-term treatment, part of the mice of each experimental group were tested in the dark/light box (test of anxiety behaviour) and in the Porsolt's forced swim test (test of depressive-like behaviour) to confirm the effectiveness of the treatment (FIG. 5). […] The other part of the experimental groups (i.e. mice without test experience) were decapitated, brains rapidly removed and frozen at −80° C. until usage.
The effects of P2X7R inhibition on depressive-like behaviour was assessed 24 hours and 48 hours after infusion of siRNA, control or vehicle according to the standard test paradigm, the Porsolt's forced swim test (Porsolt et al., Arch. Int. Pharmacodym. 229 (1977), 327-336; Porsolt, Rev. Neurosci. 11 (2000), 53-58). […] Compared to vehicle application, no influence of control double stranded RNA (5′-[…]-3′) on floating behaviour (passive stress coping) was detected. […] This interpretation becomes moreover evident when the effects of antidepressants on passive stress coping behaviour in the forced swim test are visualized (FIG. 5). Passive stress coping behaviour increased after acute intrahippocampal injection (bilateral, dentate gyrus) of siRNA targeting P2X7R. The Porsolt's forced swim test is a standard test used to assess the effectiveness of antidepressants and it has been proven by many studies that the test is selectively sensitive for these effects, given that the right animal model is used. The paradigm has been widely used to test pharmaceutical compounds and to validate animal models of depression, which show an increase in passive behaviour as do the mice where P2X7R has been inhibited (siRNA).
The forced swim test is a standard test that measures primary stress-induced reductions in avoidance or escape, termed behavioural despair. The test is used to determine the effectiveness of antidepressants, test new pharmaceutical compounds and validate animal models of depression (Porsolt et al., Arch. Int. Pharmacodym. 229 (1977), 327-336; Porsolt, Rev. Neurosci. 11 (2000), 53-58; Rénéric et al., Behav. Brain Res. 136 (2002), 521-532; Page et al., Psychopharmacology 165 (2003), 194-201; Kelliher et al., Psychoneuroendocrinology 28 (2003), 332-347). The test consists of placing a mouse for a period of 5 minutes into a glass cylinder containing water. Under such circumstances, the mouse cannot touch the bottom of the cylinder and is thus forced to swim. Time, latency and frequency of struggling versus floating are scored as behavioural parameters. […] Increased struggling (i.e. active attempts to escape) indicates active coping behaviour that can be interpreted as an improvement of depression-like symptoms. For example, treatment with serotonergic antidepressants reduce the total time spent floating (Borsini, Neurosci. Biobehav. Rev. 19 (1995), 377-395; Redrobe and Bourin, Psychopharmacology 138 (1998), 198-206, and in parallel increases the time of active behaviour (i.e. swimming or struggling; Lucki et al., Psychopharmacology 155 (2001), 315-322).
The behaviour of individual mice was assessed using the Porsolt's forced swim test 24 hours after injection of vehicle solution, KN-62, or oATP. A pre-exposure of 5 minutes to the test was performed 15-17 minutes after administration of vehicle, KN-62, or oATP. A description of the Porsolt's forced swim test is given in example 9. […]

P2X7R [1] = target: T1, P2X7R (Mus musculus, UniProt Q9Z1M0); test: Entry of ethidium bromide into HT-22 cells; type: cell-based; details: pre-incubation 60 minutes with 100 μM o-ATP before agonist and ethidium bromide
T1 construct: an immortalised mouse hippocampal cell line expressing the endogenous P2X7 gene; endogenous in cells; host or cells: HT-22 mouse hippocampal cell line
T1 sequence (Q9Z1M0 1-595): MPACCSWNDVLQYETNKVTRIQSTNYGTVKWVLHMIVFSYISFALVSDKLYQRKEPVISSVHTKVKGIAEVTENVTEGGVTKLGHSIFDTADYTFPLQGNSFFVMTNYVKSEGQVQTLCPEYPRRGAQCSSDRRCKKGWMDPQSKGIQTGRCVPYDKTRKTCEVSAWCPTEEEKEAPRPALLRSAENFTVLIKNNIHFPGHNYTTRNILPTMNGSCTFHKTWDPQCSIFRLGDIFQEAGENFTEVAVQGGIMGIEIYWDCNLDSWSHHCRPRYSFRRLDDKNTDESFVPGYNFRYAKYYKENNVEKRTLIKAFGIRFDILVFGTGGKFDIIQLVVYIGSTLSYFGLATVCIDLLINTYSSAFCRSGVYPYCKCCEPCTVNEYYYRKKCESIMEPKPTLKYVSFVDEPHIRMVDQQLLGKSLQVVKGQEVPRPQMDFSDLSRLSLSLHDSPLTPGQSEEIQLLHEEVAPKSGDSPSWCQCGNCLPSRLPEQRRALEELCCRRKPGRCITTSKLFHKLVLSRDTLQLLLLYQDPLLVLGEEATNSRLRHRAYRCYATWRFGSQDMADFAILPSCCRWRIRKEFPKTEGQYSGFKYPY
Text: Yet another method of measuring P2X7R activity involves the entry of ethidium bromide into P2X7R expressing cells. Activation of P2X7R by an agonist allows the entry of ethidium bromide which binds nuclear DNA and emits a fluorescence signal. Alternatively, the propidium dye YOPRO-1 can be substituted for ethidium bromide. An increase in fluorescence can be used as a measure of P2X7 receptor activation. Therefore, the assay can be used to test and quantify the effect of an agent or compound with agonist properties on P2X7R. In the present example, 10^3 HT-22 cells were seeded per well in a 96-well flat bottom microtitre plates and incubated at 37° C./5% CO2 in DMEM medium containing 10% FCS until the cells attached to the culture surface. […] The number of fluorescent cells which have integrated the ethidium bromide to the DNA can then be counted using a fluorescent microscope (Zeiss, Germany). […] Alternatively, ethidium bromide fluorescence can be measured using a Perkin-Elmer fluorescent plate reader (excitation 520 nm, emission 595 nm, slit widths: Ex 15 nm, Em 20 nm). From the readings obtained, a pIC50 figure can be calculated for each candidate agent or compound. […] The specificity of an agonist for P2X7R can be evaluated by pre-incubation of the cells for 60 minutes with 100 μM o-ATP before adding the agonist and ethidium bromide dye.

P2X7R [2] = target: T1, P2X7R; test: Calcium influx into HT-22 cells (Oregon green AM ester); type: cell-based; set-up: dose or concentration left out as unconfirmed; details: HT-22 cells pre-treated with oATP for 1 hour before BzATP
Text: Since P2X7R is an ATP-gated ion channel which allows the entry of calcium and sodium ions into cells, a method for identifying P2X7R agonist was established by monitoring calcium influx into HT-22 cells. […] Calcium movement into the cells was visualised under a fluorescent microscope with a fluorescein filter (wavelength 492/517 nm). Oregon green AM ester is a fluorescent dye that binds to intracellular calcium. […] Alternatively, Oregon green AM ester can be replaced by Fluo-3, fluo-4, fluo-5F, fluo-5N, fluo4FF, Fluo4 dextran, Fluo-3 AM, Fluo-4 AM, Fluo-5F AM, Fluo-5N AM and Fluo4FF AM (Molecular Probes). Calcium influx in HT-22 cells can also be measured in 96-well and 384-well microplate using the Calcium Plus Assay Kit (Molecular Device) or FLIPR® Calcium Assay Kit for Fluorometric Imaging Plate Reader Systems (Molecular Device). HT-22 cells can be replaced by any cells expressing P2X7R, including cells that have been genetically modified by introducing an exogenous P2X7 gene.
Activation of P2X7R by the agonist was inhibited by oATP (FIG. 18) as illustrated by the absence of green fluorescence in the cells.

SMILES: Nc1ncnc2c1ncn2[C@@H](C=O)O[C@@H](C=O)COP(=O)(O)OP(=O)(O)OP(=O)(O)O [oATP]
- active escape attempts (time, frequency, latency of struggling) in the forced swim test (mice): no changes
- passive behaviour (time, frequency, latency of floating) in the forced swim test (mice): no changes
- number of fluorescent cells after antagonist pre-incubation (ethidium bromide entry) (P2X7R [1]): reduction in the number of fluorescent cells
- activation of P2X7R by the agonist (BzATP) after antagonist pre-treatment, calcium influx (P2X7R [2]): inhibited
